Laboratory results: patent US11236073B2, “ODM-201 crystalline form, preparation method therefor, and pharmaceutical composition thereof” (Hangzhou SoliPharma Co., Ltd., priority 2017, dated 2022)
In brackets after ≈: the same amount, converted by molar mass. Entries after “also recorded” stand apart in the source; their conditions may differ.

Experiments:
Format in all cases: physicochemical
[1] = Apparent water solubility; conditions: stirred 1 hour
Description: ODM-201 Form 1, ODM-201 Form 2, ODM-201 Form 3, ODM-201 Form 4 and ODM-201 Form 5 in the present invention were tested for the apparent water solubility, and the specific operations were as follows.
Weighed accurately and placed 15 mg of sample in a 20 mL glass vial containing 5 mL of water, and placed the vials at 25±2° C. and 37±2° C. water bath respectively, stirred in dark (about 200 rpm/min) for 1 hour, filtered with a 0.45 µm filter and took the supernatant, diluted to a certain concentration, analyzed the concentration by HPLC.

[2] = Chemical stability experiment (HPLC purity after storage); conditions: for reduction of chemical purity after storage: dry condition (desiccator) at 60° C. for 7 days; for Purity (%): dry condition at 60° C., HPLC
Description: HPLC purity data were collected on Ultimate 3000 high performance liquid chromatography under the following conditions: column AY-H (4.6*100 mm, 5 μm) detection wavelength 270 nm, column temperature 40° C., flow rate 0.8 mL/min, injection volume 5 μL. The sample was dissolved in ethanol to make a solution concentration about 1 mg/mL, and a gradient method using HPLC measurements to determine the purity of the sample. […]

[3] = Isothermal sorption / dynamic vapor sorption (hygroscopicity); conditions: between 0% RH and 80% RH
Description: Dynamic vapor sorption data and isothermal sorption data were collected on TA Instruments Q5000 TGA. Method: A sample of 1 to 10 mg was placed in a platinum pan; the weight change of the sample during the change in relative humidity from 0% to 80% to 0% was measured.

[4] = Crystalline form stability experiment (XRD after storage); conditions: stored 7 days at high temperature 60° C., high moisture content 97% RH, and 40° C.-75% RH
Description: X-ray powder diffraction (XRPD): performed on Bruker D8 Advance diffractometer. Samples were tested at room temperature. Testing conditions: scan range 3-40° 2θ, step size 0.02°2θ, and speed 0.2 s/step.
Crystalline form stability experiment: 15 mg of amorphous ODM-201, ODM-201 Form 1, ODM-201 Form 2, ODM-201 Form 4 and ODM-201 Form 5 in the present invention were respectively placed under the following different conditions: high temperature 60° C., high moisture content 97% RH, and 40° C.-75% RH. The samples were stored for 7 days before analyzed by XRD crystalline form measurements.

Solubility ([1]; 25 ± 2° C.) [µg/mL] | Solubility ([1]; 37 ± 2° C.) [µg/mL] | Purity (%) ([2]; 1 day) | Purity (%) ([2]; 7 days) | moisture sorption (weight change) [3] | The test results after 7 days (crystalline form by XRD) ([4]; listed as ODM-201 amorphous form) | SMILES | reduction of chemical purity after storage [2] | The test results after 7 days (crystalline form by XRD) [4]
59.5 (≈ 149 µM) | 88.6 (≈ 222 µM) | 99.2 | 99.1 | less than 0.2% |  | CC(O)c1cc(C(=O)N[C@@H](C)Cn2ccc(-c3ccc(C#N)c(Cl)c3)n2)n[nH]1 (stereo partly drawn) [ODM-201 Form 4, N—((S)-1-(3-(3-chloro-4-cyanophenyl)-1H-pyrazol-1-yl)prop-2-yl)-5-(1-hydroxyethyl)-1H-pyrazole-3-carboxamide] | still kept their original respective purity level; also recorded: essentially unchanged | kept their original crystalline forms; also recorded: keeps its form unchanged; also recorded: Form 4
 |  | 99.7 | 98.2 | 6.4% | began to show a weak crystalline state | CC(O)c1cc(C(=O)N[C@@H](C)Cn2ccc(-c3ccc(C#N)c(Cl)c3)n2)n[nH]1 (stereo partly drawn) [amorphous ODM-201, N—((S)-1-(3-(3-chloro-4-cyanophenyl)-1H-pyrazol-1-yl)prop-2-yl)-5-(1-hydroxyethyl)-1H-pyrazole-3-carboxamide, reference compound] | more than 1% | begins to show a weak crystalline state; also recorded: Amorphous with weak crystalline peaks
27.6 (≈ 69.2 µM) | 54.8 (≈ 137 µM) | 99.6 | 99.6 | 2.5% |  | CC(O)c1cc(C(=O)N[C@@H](C)Cn2ccc(-c3ccc(C#N)c(Cl)c3)n2)n[nH]1 (stereo partly drawn) [ODM-201 Form 2, N—((S)-1-(3-(3-chloro-4-cyanophenyl)-1H-pyrazol-1-yl)prop-2-yl)-5-(1-hydroxyethyl)-1H-pyrazole-3-carboxamide] | still kept their original respective purity level; also recorded: essentially unchanged | kept their original crystalline forms; also recorded: keeps its form unchanged; also recorded: Form 2
12.5 (≈ 31.3 µM) | 24.3 (≈ 60.9 µM) |  |  |  |  | CC(O)c1cc(C(=O)N[C@@H](C)Cn2ccc(-c3ccc(C#N)c(Cl)c3)n2)[nH]n1 (stereo partly drawn) [ODM-201 Form 3, N—((S)-1-(3-(3-chloro-4-cyanophenyl)-1H-pyrazol-1-yl)prop-2-yl)-5-(1-hydroxyethyl)-1H-pyrazole-3-carboxamide] |  | 
17.7 (≈ 44.4 µM) | 29.5 (≈ 74 µM) | 99.6 | 99.5 | less than 0.5% |  | CC(O)c1cc(C(=O)N[C@@H](C)Cn2ccc(-c3ccc(C#N)c(Cl)c3)n2)n[nH]1 (stereo partly drawn) [ODM-201 Form 5, N—((S)-1-(3-(3-chloro-4-cyanophenyl)-1H-pyrazol-1-yl)prop-2-yl)-5-(1-hydroxyethyl)-1H-pyrazole-3-carboxamide] | still kept their original respective purity level; also recorded: essentially unchanged | kept their original crystalline forms; also recorded: keeps its form unchanged; also recorded: Form 5
 | 17.4 (≈ 43.6 µM) | 99.7 | 99.6 | less than 0.3% |  | CC(O)c1cc(C(=O)N[C@@H](C)Cn2ccc(-c3ccc(C#N)c(Cl)c3)n2)n[nH]1 (stereo partly drawn) [ODM-201 Form 1, N—((S)-1-(3-(3-chloro-4-cyanophenyl)-1H-pyrazol-1-yl)prop-2-yl)-5-(1-hydroxyethyl)-1H-pyrazole-3-carboxamide] | essentially unchanged; also recorded: still kept their original respective purity level | keeps its form unchanged; also recorded: kept their original crystalline forms; also recorded: Form 1
